Source: patent US20080153869A1, “Kinase Inhibitors” (priority 2004, published 2008)
pIC50: −log10 of the molar value.

Key:
AIK = biological target: T1, AIK (Homo sapiens, UniProt O14965); experiment: Inhibition of AIK, Direct Fluorescence Polarization (IMAP); format: biochemical; conditions: FP assay, 2.5 uM ATP, 2.5 nM AIK
T1 sequence (O14965 1-403): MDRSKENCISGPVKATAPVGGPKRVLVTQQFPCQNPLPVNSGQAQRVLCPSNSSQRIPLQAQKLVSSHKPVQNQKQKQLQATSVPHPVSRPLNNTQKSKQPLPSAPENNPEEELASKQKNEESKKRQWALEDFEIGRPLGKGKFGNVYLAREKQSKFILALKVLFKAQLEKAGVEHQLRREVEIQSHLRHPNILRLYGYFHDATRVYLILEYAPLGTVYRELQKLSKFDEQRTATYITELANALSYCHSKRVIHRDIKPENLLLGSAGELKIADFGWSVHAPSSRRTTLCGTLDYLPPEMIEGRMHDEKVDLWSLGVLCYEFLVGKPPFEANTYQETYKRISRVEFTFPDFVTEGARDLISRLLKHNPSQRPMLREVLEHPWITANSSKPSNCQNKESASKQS
Description: The inhibitory properties of compounds relative to AIK may be determined by the Direct Fluorescence Polarization detection method (FP) using a Greiner small volume black 384-well-plate format under the following reaction conditions: 50 mM Hepes pH 7.3, 10 mM MgCl2, 10 mM NaCl, 1 mM DTT, 0.01% Brij35, 100 nM Fluorescein-LRRASLG peptide (provided by SYNPEP), 5% DMSO, 2.5 uM ATP. Detection of the reaction product is performed by addition of IMAP binding reagent (Molecular Devices). Reaction product may be determined quantitatively by FP using an Analyst HT plate reader (Molecular Devices) with an excitation wavelength at 485 nm and emission at 530 nm and using a Fluorescein 505 dichroic mirror.
The assay reaction may be initiated as follows: 2 ul of (3×) 300 nM Fl-Peptide/7.5 uM ATP was added to each well of the plate, followed by the addition of 2 ul of (3×) inhibitor (2.5 fold serial dilutions for 11 data points for each inhibitor) containing 15% DMSO. 2 ul of (3×) 7.5 nM AIK solution may be added to initiate the reaction (final enzyme concentration was 2.5 nM for AIK). […] Fluorescence polarization readings of the resulting reaction mixtures may be measured after a 60-minute incubation at room temperature.
IC50 values may be calculated by non-linear curve fitting of the compound concentrations and fluorescent polarization values to the standard IC50 equation.

c-KIT = c-KIT (Homo sapiens, UniProt P10721); experiment: Inhibition of c-KIT, TR-FRET; format: biochemical; conditions: TR-FRET assay, 100 uM ATP, 0.13 nM c-Kit
Chain of c-KIT (P10721 26-976): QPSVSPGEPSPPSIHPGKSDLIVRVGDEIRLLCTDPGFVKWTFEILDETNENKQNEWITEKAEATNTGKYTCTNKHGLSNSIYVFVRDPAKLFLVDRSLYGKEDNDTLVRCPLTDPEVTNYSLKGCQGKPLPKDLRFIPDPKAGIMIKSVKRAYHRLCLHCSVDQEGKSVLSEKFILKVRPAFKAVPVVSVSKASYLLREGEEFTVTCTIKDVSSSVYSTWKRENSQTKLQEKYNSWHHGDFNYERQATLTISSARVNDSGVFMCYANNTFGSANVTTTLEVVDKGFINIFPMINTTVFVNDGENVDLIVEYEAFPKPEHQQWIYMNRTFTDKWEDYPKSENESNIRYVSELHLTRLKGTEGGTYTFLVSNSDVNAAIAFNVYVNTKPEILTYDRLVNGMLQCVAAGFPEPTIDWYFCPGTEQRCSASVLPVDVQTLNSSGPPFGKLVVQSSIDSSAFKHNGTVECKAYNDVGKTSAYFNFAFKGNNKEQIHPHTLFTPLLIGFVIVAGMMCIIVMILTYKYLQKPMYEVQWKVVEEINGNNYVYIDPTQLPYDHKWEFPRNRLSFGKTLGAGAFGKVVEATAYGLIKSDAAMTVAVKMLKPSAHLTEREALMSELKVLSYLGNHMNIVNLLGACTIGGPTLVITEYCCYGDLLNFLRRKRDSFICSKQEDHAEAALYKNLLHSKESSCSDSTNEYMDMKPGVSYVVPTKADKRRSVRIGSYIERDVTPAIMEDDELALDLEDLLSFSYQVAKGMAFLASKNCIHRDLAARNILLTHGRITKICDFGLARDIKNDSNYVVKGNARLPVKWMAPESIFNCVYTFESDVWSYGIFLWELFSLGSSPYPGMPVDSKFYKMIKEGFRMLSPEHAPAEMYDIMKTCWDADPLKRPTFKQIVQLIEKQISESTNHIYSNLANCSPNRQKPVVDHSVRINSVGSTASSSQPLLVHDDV

pIC50 (AIK): > 4.00
pIC50 (c-KIT): > 4.00
Structure (SMILES): Cc1cc(-c2c(O)[nH]c3ccccc23)nc(N)n1 [Example 1, 3-(2-Amino-6-methyl-pyrimidin-4-yl)-1H-indol-2-ol]
